How the values were obtained:
Experiment in all cases: relative viability (nuclei count vs DMSO), 5 days (fraction); higher = more cells survive
Linsitinib + Foretinib = compound: C[C@]1(O)C[C@@H](c2nc(-c3ccc4ccc(-c5ccccc5)nc4c3)c3c(N)nccn32)C1 [Linsitinib] + COc1cc2c(Oc3ccc(NC(=O)C4(C(=O)Nc5ccc(F)cc5)CC4)cc3F)ccnc2cc1OCCCN1CCOCC1 [Foretinib] (partner 0.25 µM)
Procedure, shortened: (§1)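 The day after seeding in 1536-well plates, lung cancer cell lines were treated by pin tool with a single drug, or with a fixed anchor-drug dose together with five library-drug doses (not always all listed) in √10 steps. After 5 days, a combined fix-and-stain solution (final 0.05% Triton X-100, 1% formaldehyde, 1 ug/ml Hoechst) was added. Nuclei counted on 4× images gave relative viability as treated counts over vehicle counts, reported as the median of duplicate plates.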

Linsitinib + Crizotinib = compound: C[C@]1(O)C[C@@H](c2nc(-c3ccc4ccc(-c5ccccc5)nc4c3)c3c(N)nccn32)C1 [Linsitinib] + C[C@@H](Oc1cc(-c2cnn(C3CCNCC3)c2)cnc1N)c1c(Cl)ccc(F)c1Cl [Crizotinib] (partner 1 µM)
Procedure, shortened: as §1

Linsitinib + Olaparib = compound: C[C@]1(O)C[C@@H](c2nc(-c3ccc4ccc(-c5ccccc5)nc4c3)c3c(N)nccn32)C1 [Linsitinib] + O=C(c1cc(Cc2n[nH]c(=O)c3ccccc23)ccc1F)N1CCN(C(=O)C2CC2)CC1 [Olaparib] (partner 8 µM)
Procedure, shortened: as §1

Ispinesib + Alpelisib = compound: Cc1ccc(C(=O)N(CCCN)[C@@H](c2nc3cc(Cl)ccc3c(=O)n2Cc2ccccc2)C(C)C)cc1 [Ispinesib] + Cc1nc(NC(=O)N2CCC[C@H]2C(N)=O)sc1-c1ccnc(C(C)(C)C(F)(F)F)c1 [Alpelisib] (partner 2 µM)
Procedure, shortened: as §1

Cell Line	relative viability (Linsitinib + Foretinib; first compound 0.01 µM)	relative viability (Linsitinib + Foretinib; first compound 0.03162 µM)	relative viability (Linsitinib + Foretinib; first compound 0.1 µM)	relative viability (Linsitinib + Foretinib; first compound 0.3162 µM)	relative viability (Linsitinib + Foretinib; first compound 1 µM)	relative viability (Linsitinib + Crizotinib; first compound 0.01 µM)	relative viability (Linsitinib + Crizotinib; first compound 0.03162 µM)	relative viability (Linsitinib + Crizotinib; first compound 0.1 µM)	relative viability (Linsitinib + Crizotinib; first compound 0.3162 µM)	relative viability (Linsitinib + Crizotinib; first compound 1 µM)	relative viability (Linsitinib + Olaparib; first compound 0.01 µM)	relative viability (Linsitinib + Olaparib; first compound 0.03162 µM)	relative viability (Linsitinib + Olaparib; first compound 0.1 µM)	relative viability (Linsitinib + Olaparib; first compound 0.3162 µM)	relative viability (Linsitinib + Olaparib; first compound 1 µM)	relative viability (Ispinesib + Alpelisib; first compound 0.001 µM)	relative viability (Ispinesib + Alpelisib; first compound 0.003162 µM)	relative viability (Ispinesib + Alpelisib; first compound 0.01 µM)	relative viability (Ispinesib + Alpelisib; first compound 0.03162 µM)	relative viability (Ispinesib + Alpelisib; first compound 0.1 µM)
201T	1.19	1.15	1.07	1.2	0.82	1.02	1.03	1.07	1.11	1.01	0.874	0.61	0.84	0.676	0.862	1.07	1.01	1.06	0.996	0.955
A549	0.97	0.953	0.999	0.695	0.875	0.685	0.771	0.684	0.623	0.473	0.344	0.376	0.384	0.244	0.195	0.655	0.761	1.08	0.0901	0.0827
A-427	1.12	1.15	1.19	–	1.11	0.872	0.779	1.04	–	0.726	0.71	0.73	0.75	–	0.584	1.1	1.21	0.993	1	1.04
ABC-1	1.23	0.924	1.05	0.747	1.76	1.26	1.01	1.01	0.614	0.905	0.859	1.04	0.785	1.09	0.626	1.36	0.881	1.25	0.343	0.315
BEN	0.635	0.578	0.642	–	0.753	0.767	1.01	0.993	0.611	0.826	1.03	0.987	1.17	0.686	0.953	1.06	1.13	1.12	0.758	0.353
CAL-12T	1.08	1.13	1.18	0.752	1.1	0.641	0.596	0.625	0.556	0.467	0.79	0.899	0.784	0.689	0.713	1.05	1.29	1.38	0.624	0.142
COR-L23	0.892	0.996	0.905	0.834	0.861	0.611	0.672	0.742	0.556	0.658	0.375	0.292	0.346	0.299	0.29	0.827	0.948	1.08	0.144	0.16
COR-L 105	0.969	1.03	1.08	0.956	0.908	0.938	0.7	0.845	0.631	0.471	0.762	0.635	0.685	0.538	0.516	1.15	0.952	0.89	0.562	0.35
Calu-6	0.826	0.768	0.837	0.799	0.726	0.79	0.701	0.837	0.717	0.708	0.537	0.46	0.542	0.501	0.458	1.04	0.901	0.551	0.134	0.145
ChaGo-K-1	0.853	0.903	0.85	0.762	0.882	1.08	1.07	1.14	0.812	1.04	0.426	0.404	0.401	–	0.365	–	–	–	–	–
EBC-1	0.115	0.109	0.0995	0.106	0.104	0.168	0.173	0.212	0.197	0.193	0.664	0.851	0.703	0.623	0.691	0.77	0.861	0.931	0.244	0.274
EKVX	0.988	0.358	0.779	0.252	0.686	0.895	0.938	0.99	0.795	0.943	–	0.861	0.951	0.489	0.648	0.978	0.879	0.923	0.944	0.273
EMC-BAC-2	0.95	0.979	1.1	0.907	0.819	0.8	0.738	0.696	0.517	0.688	0.478	0.601	0.47	0.348	0.37	0.815	0.752	0.917	0.548	0.526
EPLC-272H	0.72	0.693	–	–	0.656	0.774	0.995	0.873	–	0.733	1.42	0.694	0.841	0.469	0.479	0.989	1.12	1.01	0.529	0.972
